Experimental data taken from patent publication US20160366888A1, “ENVIRONMENTALLY FRIENDLY FORMULATIONS FOR BI-COMPONENT HETEROCYCLIC SCHIFF BASE TEXTILE FINISHES” (Government of the United States as Represented by the …, priority 2013, published 2016).

Legend:
B. subtilis = experiment: Antimicrobial activity (zone of inhibition) of treated cotton fabric; assay type: cell-based; settings: aqueous solution applied to cotton fabric; observation over all plates
Text: (§1) Each aqueous solution prepared and applied to cotton fabric and tested for antimicrobial activity.
(§2) In Table 2, below, “5+” represents a zone of inhibition ranging 41 mm to 50 mm; “4+” represents a zone of 31 mm to 40 mm; “3+” represents a zone of 21 mm to 30 mm; “2+” represents a zone of 11 mm to 20 mm; “1+” represents a zone of 1 mm to 10 mm; and “−” represents no antimicrobial activity noted.
(§3) The American Association of Textile Chemists and Colorists (AATCC) test method 147, Antibacterial Assessment of Textile Materials was used to qualitatively test the biocidal efficacy of pretreatment solutions according to an embodiment of the present invention. Test material was aseptically transferred directly onto the surface of an inoculated nutrient agar slurry. After a specified incubation contact time, the test material was removed and any growth, or lack thereof, beneath the test material surface is recorded.

S. aureus = experiment: as above; assay type: cell-based; settings: aqueous solution applied to cotton fabric; observation over all plates
Text: as §1, §2, §3

Row | SMILES | clearing of plates in words, B. subtilis (B. subtilis) | clearing of plates in words, S. aureus (S. aureus)
1 | Oc1cccc2cccnc12 [8HQ, 8-hydroxyquinoline] | cleared plates 2 | –
2 | O=S(=O)(O)O.Oc1cccc2cccnc12.Oc1cccc2cccnc12 [Quinolinol salt hemisulfate, 8-HQ hemisulfate] | – | Cleared all of
